From US12544361B2, “Composition comprising at least one oxazoline for inhibiting the growth of Malassezia yeasts involved in cradle cap, in particular” (Laboratoires Expanscience, priority 2019, dated 2026)
≈ marks a conversion by molar mass, not a printed value.

How the values were obtained:
Type in all cases: cell-based
[1] = system: Malassezia furfur (CIP 1634.86); test: MIC in solid medium by agar dilution method; settings: CIP1634, strain CIP 1634.86
Procedure: Protocol: the minimum inhibitory concentration (MIC) of a strain of Malassezia furfur (CIP 1634.86) against cycloceramide OX100 is determined in solid medium by agar dilution method according to COURVALIN P., GOLDSTEIN F., PHILIPPON A. and SIROT J.-Fiche technique 5—L'antibiogramme, édition MPC, 1985, p. 199.

[2] = system: Malassezia furfur (ATCC 14521); test: MIC of cycloceramide OX100 in liquid medium, 96-well plates (GLYcoDiag technology); settings: 48 hours at 32.5° C., about 5.20-10^4 cfu/mL per well, strain ATCC 14521
Procedure: (§1) The determination of the minimum inhibitory concentration of cycloceramide OX100 is carried out by a procedure adapted to liquid media in 96-well plates. The MIC study is conducted using GLYcoDiag technology, using the microbial strain Malassezia furfur (American Type Culture Collection (ATCC) reference 14521) as the organism. The cultures are reconstituted according to the instructions of the collection center supplying the reference strain.
Preparation of samples and test microorganisms: OX100 cycloceramide is diluted in culture medium to the following concentrations: final concentrations in culture medium (expressed as percentages by volume): 0.25%; 0.125%; 0.0625%; 0.0312%; 0.01562%; 0.0078%.
Analytical controls are prepared and used identically to the sample: • a control corresponding to the microbiological medium alone; • a control consisting of Phenoxyethanol® prepared at 5% (v/v) directly in the microbiological medium associated with each microbial strain.
(§2) In order to determine the MIC of cycloceramide OX100, it is tested in serial dilutions of 6 dilutions directly in the culture medium intended to support the growth of the M. furfur strain (96-well microplates). Then, each dilution point is contaminated with the test strain in an amount of about 5.20-10^4 cfu/mL per well. Finally, the tests are incubated for 48 hours at 32.5° C. […]

[3] = system: Malassezia furfur (ATCC 14521); test: MIC of arabinogalactan and malic acid diester in liquid medium, 96-well plates (GLYcoDiag technology); settings: 48 hours at 32.5° C., about 1.30-10^4 cfu/mL per well, strain ATCC 14521
Procedure: as §1, with “The” for “The determination of the”, “concentration (MIC)” for “concentration”, “arabinogalactan and malic acid diester” for “cycloceramide OX100”, “using” for “by”
Preparation of samples and test microorganisms: the products are diluted in culture medium at the concentrations defined in the table below.
Analytical controls are prepared and used identically to the sample: • a control corresponding to the microbiological medium alone; and • a control consisting of Phenoxyethanol® prepared at 5% (v/v) directly in the microbiological medium associated with each microbial strain.
as §2, with “the product,” for “cycloceramide OX100,”, “promote” for “support”, “1.30-10^4” for “5.20-10^4”, “C.±2.5° C., taking care to respect the respiratory type of the strain which is facultative aero-anaerobic.” for “C.”

Compound | MIC [1] [µg/mL] | MIC [2] | MIC [3]
CCCCCCCCCCCC1=NC(C)(C)CO1 [OX100, 2-undecyl-4,4-dimethyl-1,3-oxazoline] | 64 (≈ 253 µM) | 0.031 % (v/v) | 
di-C12-C13-alkyl malate [malic acid diester] |  |  | 1.25 % (v/v)
arabinogalactan |  |  | 2.5 % (v/v)
